Measurements reported in paper PMC2783175 (Archives of biochemistry and biophysics, 2009).

Molecular target: T1, Cystathionine β-synthase (CBS) (Homo sapiens, UniProt P35520)
T1 sequence (P35520 1-408): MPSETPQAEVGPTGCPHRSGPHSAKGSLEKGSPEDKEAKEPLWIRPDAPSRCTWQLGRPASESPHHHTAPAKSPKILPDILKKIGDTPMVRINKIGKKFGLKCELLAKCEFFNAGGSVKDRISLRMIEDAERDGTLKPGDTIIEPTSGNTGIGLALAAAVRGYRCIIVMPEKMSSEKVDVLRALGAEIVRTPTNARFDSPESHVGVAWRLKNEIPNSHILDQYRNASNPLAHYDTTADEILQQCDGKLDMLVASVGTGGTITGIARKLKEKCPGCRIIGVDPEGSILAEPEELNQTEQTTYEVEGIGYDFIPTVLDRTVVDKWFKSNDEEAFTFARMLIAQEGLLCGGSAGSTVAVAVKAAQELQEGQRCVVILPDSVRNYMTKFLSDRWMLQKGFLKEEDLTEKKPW
Assay: Loss of purified enzyme activity
Assay type: biochemical

O=NOO [peroxynitrite, oxoperoxonitrate(1-)]
IC50: ~150 µM
